According to patent publication US20260027073A1, “USE OF SMALL-MOLECULE COMPOUND HAVING NAPHTHYLAMINE STRUCTURE” (HANGZHOU PHECDAMED CO., LTD., priority 2023, published 2026):

Key:
[1] = tested on: Androgen-induced benign prostatic hyperplasia in rats; experiment: Androgen-induced benign prostatic hyperplasia; format: in vivo, SD rats; conditions: TJ01-013 30 mg/kg, Finasteride 10 mg/kg
Procedure: Androgen-induced benign prostatic hyperplasia in rats has been used in many research fields. The specific model was constructed as follows: 180 g-200 g male SD rats were given 30 mg/kg androgen intramuscularly every other day, and 15 consecutive androgen injections were given for modeling, and the experiments were divided into […], a negative control group (Sham), a model control group (Control), TJ01-013 treatment group (TJ01-013, 30 mg/kg), Finasteride treatment group (Finasteride, 10 mg/kg), and TJ01-013+Finasteride treatment group (13+F). The drug was administered at the same time as the androgen modeling, the mode of administration was by oral gavage, the volume of the administration was 10 ml/kg, the frequency of administration was daily, and the administration was ended on the 30th day, the rats were weighed and euthanized, and the prostate and urethra of the rats were taken and weighed, and the organ coefficients (weight of the prostate gland/weight of the rats) were finally calculated.

[2] = tested on: CUMS animal model of depression; experiment: CUMS depression model behavioral tests; format: in vivo, C57BL/6J mice; conditions: Fluoxetine 30 mg/kg
Source text: Depression, also known as depressive disorder, is characterized by significant and long-lasting depressed state of mind as the main clinical feature. The CUMS animal model of depression is a chronic unpredictable animal stress model, which simulates part of the stressor, the external material environmental stimulus, and will cause dysfunctions in the animal organism through different stress stimuli, leading to occurrence of the psychiatric disease depression. […] During this period, carefully observing the status of each mouse. • (6) Basket shaking: Placing the mice in an empty basket and shaking the basket drastically, with the criterion that the mice in the basket are unable to stand firm and sway with the shaking of the basket, for 1 hour. • (7) Olfactory stimulation: Placing anise and other spices in the mice's baskets as a means of olfactory stimulation.
The above seven experiments were conducted randomly during a week as a way to achieve unpredictability with 4 weeks of continuous stimulation.
At the end of the modeling, an open field test experiment was conducted to screen the modeled animals and group the successful modeled animals into five groups: normal group (Control), model control group (Model), positive drug treatment group (Fluoxetine), TJ0113 10 mg/kg treatment group (10 mg/kg), […], TJ0113 30 mg/kg treatment group (30 mg/kg). There were 10 mice in each group, and the administration treatment was administered by gavage, the normal and model control groups were given vehicle treatment, the vehicle was 0.5% CMC-Na, the positive drug fluoxetine hydrochloride was solubilized in saline and administered at a dose of 30 mg/kg, and the TJ0113 vehicle was 0.5% CMC-Na, and administered at a dose of 10 mg/kg and 30 mg/kg, respectively. 4 weeks after the end of the administration, behavioral tests were performed.
• (1) Adaptive feeding: Adaptive feeding with 1% sucrose water and plain water for 2 d before the start of the test, at 1 d, interchanging the sugar water and plain water to avoid positional differences for the animals, and fasting food and water for 1 d after adaption; • (2) Formal test: after fasting food and water, 1% sucrose water and plain water were given to the animals (the initial mass of sugar water and plain water is known), and weighing the remaining mass of sugar water/plain water of each animal after 24 h, and calculating the consumption rates of sugar water A and plain water B; • (3) Data analysis: sugar water preference rate=(A/A+B)×100%.
• (1) adapting to the environment: placing the animals in the test environment for 60 min to adapt to the environment before the test; • (2) Formal test: fixing the rear 1/3 of the mouse tail with tape and suspending on the stand of the experimental apparatus, with the head 15 cm from the bottom; • (3) starting timing camera, and stopping after 6 min, and recording the immobility time of the mice within 4 min; • (4) At the end of the test, using 75% alcohol to wipe the bottom and inner wall of the chamber.
• (1) adapting to the environment: placing the animals in the test environment for 60 min to adapt to the environment before the test; • (2) Formal test: placing the animals to be tested in the middle of the open field, and using the ANY-Maze software to collect the data, the test time is 10 min, and the feces and urine must be removed at the end of each round and disinfected and wiped dry with 75% alcohol; • (3) Analysis of results: total moved distance and average speed during the activity, time spent in the center area and time spent in the corner area.

[3] = In vitro liver microsomal stability test; conditions: microsomes
Procedure: Ketanserin was selected as the reference compound. The specific method was as follows:
0.1 M K3PO4 (pH 7.4) buffer and 3×NADPH stock solution (6 mM, 5 mg/mL) were configured and preheated in a 37° C. water bath; configuration of the test compounds and the control compounds (spiking solution): adding 5 μL of the compound stock solution ([…]) into 95 μL of acetonitrile; configuration of 1.5 μM spiking solution in microsomes (0.75 mg/mL): adding 1.5 μL of spiking solution and 18.75 μL of liver microsomal solution (20 mg/mL) into 479.75 μL of K3PO4 buffer; adding 30 μL of spiking solution in microsomes into the multiwell plate, and incubating at 37° C. for 5 min; adding 15 μL of NADPH storage solution into each well to start to react, and timing; adding 150 μL of acetonitrile solution containing IS at 0 min, 5 min, 15 min, 30 min, and 45 min, respectively, stopping the reaction; oscillating for 10 min, and then centrifuging at 6,000 rpm for 15 min; taking 80 μL of supernatant from each well for LC/MS detection, and calculating T1/2.

HGPS-MSC = experiment: Senescence of HGPS patient derived mesenchymal stem cells; format: cell-based, human; conditions: 10 μM
Procedure: Mesenchymal stem cells HGPS-MSC differentiated from pluripotent stem cells (iPSC) of patients with Hutchinson-Gilford Progeria Syndrome (HGPS) were taken for culture, and the experiment was divided into three groups, namely, young cells cultured for 7 generations, labeled as Con-Y; senescent cells cultured for 12 generations, labeled as Con-O; and the administration group to which 10 μM of TJ01-013 was added during the process of culture, similarly cultured up to the 12th generation, labeled as Con-O+TJ01-013; the drug administration group to which 10 μM positive drug Ionafarnib was added during the process of culture, similarly cultured up to the 12th generation, and labeled as Con-O+ Ionafarnib; after the end of the treatment, all the cells were placed under the microscope to observe the morphology of the cells, and the proportion of SA-β-gal+ cells was counted. The levels of DNA damage marker γ-H2AX and heterochromatin modification H3K9me3 after TJ01-013 treatment and Ionafarnib treatment were detected by immunofluorescence technique (the specific procedure was described previously).

[4] = tested on: LPS-induced acute lung injury mice; experiment: LPS-induced acute lung injury; format: in vivo, C57BL/6J mice
Procedure: Male mice C57BL/6J aged 6-8 weeks and weighing 18-22 g were selected for the study. After fixing the mice, 50 μl of PBS was injected into the airways of the mice under direct laryngoscopic vision to form a control group, and 5 mg/kg of LPS (E.coil) was dissolved in 50 μl of PBS and dripped to form a model group. The experiments were divided into […], each having 6 mice, namely, NS group (control group, airway drip of 50 μl PBS), LPS group (model control group, airway drip of 50 μl LPS), LPS+10 mg/kg group (airway drip of 50 μl LPS and given 10 mg/kg TJ01-013 treatment), LPS+20 mg/kg group (airway drip of 50 μl LPS and given 20 mg/kg TJ01-013 treatment), LPS+30 mg/kg group (airway drip of 50 μl LPS and given 30 mg/kg TJ01-013 treatment), LPS+Sivelestat group (Positive control group, airway drip of 50 μl LPS and given 5 mg/kg Sivelestat treatment). All groups were administered […] by intraperitoneal injection in a volume of 200 μl 1 h and 7 h after airway drip, and the mice were euthanized 24 h later, bronchoalveolar lavage fluid (BALF) was taken, and the levels of inflammatory factors in the bronchoalveolar lavage fluid were detected and the changes in the transcriptional levels of tissue-associated inflammatory factors were observed. • (2) taking and observing of Bronchoalveolar lavage fluid (BALF)
Use chloral hydrate intraperitoneal injection to make mice die of rapid overdose anesthesia, place mice in supine position on the dissection table, fix the limbs, disinfect the skin of the neck of the mice with 75% ethanol, incise the skin along the midline of the neck, bluntly separate the subcutaneous connective tissues and muscles with hemostatic forceps, expose the trachea, separate connective tissues on both sides of the trachea and between the trachea and the esophagus, and free the trachea. Two surgical sutures about 20 cm long were threaded between the trachea and esophagus. A 24G intravenous cannula needle was inserted at a 30-degree angle from the connective tissue membrane between the thyroid cartilage and the cricoid cartilage, and the intravenous cannula needle was delivered in the direction of the tracheal eminence. A surgical suture placed between the tracheo-esophageal was ligated at the entry of the cannula into the trachea and at the distal end of the cannula, respectively, and tied as tightly as possible to secure the cannula and trachea. 0.8 ml of PBS was aspirated with a 1 ml syringe, and the syringe was connected to the inlet end of the intravenous cannula needle, and PBS was slowly injected into the trachea, stayed for 30 seconds and then was withdrawn back, and a milky white frothy liquid withdrawn back was visible, and the lavage was repeated three times, and the liquid was centrifuged at 1500 rpm/min for 10 min, and the supernatant was used for cytokine assay, and the cell precipitates were coated after resuspending with PBS for Giemsa staining and sorting and counting.
The levels of inflammatory factors (inflammatory factors including IL-6, CXCL1, CXCL2, etc.) in BALF supernatant were detected according to the instructions of the ELISA test kit.
The obtained cDNA was amplified on a 96-well PCR plate using a LightCycler 480 system, and the gene level was determined by using glyceraldehyde 3-phosphate dehydrogenase (GAPDH) as an internal standard.

[5] = tested on: LPS-induced sepsis in mice; experiment: LPS-induced sepsis survival; format: in vivo, C57 mice; conditions: 8th day; 10 mg/kg intraperitoneal once a day; LPS alone about 20%; FIG. 33
Procedure: A constructed preclinical sepsis model is a LPS-induced sepsis in mice. Injection of purified LPS into mice by intraperitoneal route or intravenous route can lead to activation of the innate immune system and simulate fulminant Gram-negative bacterial infections, the specific modeling method is as follows: 20-25 g C57 mice were selected, and 20 mg/kg LPS was injected intraperitoneally according to the body weight (the LPS was dissolved with PBS), and the experiment was divided into three groups, a model control group (LPS), a positive control treatment group (prednisone, 10 mg/kg), TJ01-013 treatment group (TJ01-013, 10 mg/kg), the mode of administration was intraperitoneal injection, the volume of administration was 5 ml/kg, the frequency of administration was once a day, and the biological deaths and changes in body weights of the mice were observed and recorded every day, and the mice were regarded as physiologically dead if their body weights decreased by 20% or more compared with that before the administration of LPS. Survival curves were plotted based on deaths observed up to 8 days after administration.

[6] = TJ01-013 10, 20, 30 mg/kg, Sivelestat 5 mg/kg, FIG. 26
[7] = concentration-dependent for TJ01-013, FIG. 27

CC(C)(C)NC(=O)[C@H]1CC[C@H]2[C@@H]3CC[C@H]4NC(=O)C=C[C@]4(C)[C@H]3CC[C@]12C [Finasteride]
prostate weight ([1]; oral gavage daily to day 30, FIG. 34): reduced
organ coefficient of prostate ([1]; oral gavage daily, FIG. 35): reduced the organ coefficient of prostate, but there was no significant difference
weight of urethra and bladder ([1]; oral gavage daily, FIG. 36): tendency of decreasing its weight

CNCCC(Oc1ccc(C(F)(F)F)cc1)c1ccccc1 (stereo not shown) [Fluoxetine, reference compound]
average movement speed, open field ([2]; TJ0113 10 mg/kg and 30 mg/kg, FIG. 61): significantly increased
sugar water preference ([2]; TJ0113 30 mg/kg, gavage, FIG. 57): significantly increased
time in despair (immobility), tail-hanging experiment ([2]; TJ0113 30 mg/kg, FIG. 58): significantly decreased
distance moved, open field ([2]; TJ0113 30 mg/kg, FIG. 59): significantly increased
time in the edge area of the open field ([2]; TJ0113 30 mg/kg, FIG. 60): significantly decreased

CN(c1cc([S+]([O-])CC(=O)O)c(O)c2ccccc12)S(=O)(=O)c1ccc(Br)cc1 (stereo not shown) [I-2]
liver microsomal stability (elimination half-life T1/2) [3]: superior liver microsomal stability

NC(=O)N1CCC(CC(=O)N2CCC([C@H]3c4ncc(Br)cc4CCc4cc(Cl)cc(Br)c43)CC2)CC1 [Ionafarnib, reference compound]
percentage of SA-β-gal+ cells (HGPS-MSC; 12th generation, vs Con-O, FIG. 54): significantly decreased
level of DNA damage marker γ-H2AX (HGPS-MSC; FIG. 55): significantly reduced
expression level of heterochromatin-modified H3K9me3 (HGPS-MSC; FIG. 56): restored its expression level to some extent

CC(C)(C)C(=O)Oc1ccc(S(=O)(=O)Nc2ccccc2C(=O)NCC(=O)O)cc1 [Sivelestat, reference compound]
CXCL1 level in alveolar lavage fluid (ELISA) [4, 6]: significantly decreased
CXCL2 level in alveolar lavage fluid (ELISA) [4, 6]: no significant effect
IL-6 level in alveolar lavage fluid (ELISA) [4, 6]: no significant effect
CXCL1 transcript level in lung tissue [4, 7]: significantly decreased
CXCL2 transcript level in lung tissue [4, 7]: no significant effect
IL-6 transcript level in lung tissue [4, 7]: no significant effect

C[C@]12C=CC(=O)C=C1CC[C@@H]1[C@@H]2C(=O)C[C@@]2(C)[C@H]1CC[C@]2(O)C(=O)CO [prednisone, reference compound]
survival rate [5]: 100%
